Key:
Test in all cases: relative viability (nuclei count vs DMSO), 5 days (fraction); higher = more cells survive
[1] = compound: CC(=O)c1c(C)c2cnc(Nc3ccc(N4CCNCC4)cn3)nc2n(C2CCCC2)c1=O [Palbociclib] + Nc1nc2[nH]cc(CCc3ccc(C(=O)N[C@@H](CCC(=O)O)C(=O)O)cc3)c2c(=O)[nH]1 [Pemetrexed] (partner 0.2 µM)
How it was run: (§1)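 Lung cancer cell lines were seeded in 1536-well plates and dosed by pin tool the next day, with either a single drug or a fixed anchor-drug dose combined with five library-drug doses (not always all listed) spaced in √10 steps. Five days later, one step fixed the cells and stained their nuclei (final 0.05% Triton X-100, 1% formaldehyde, 1 ug/ml Hoechst), and nuclei were counted on 4× images. Relative viability is the nuclei count in treated wells divided by the count in vehicle wells, and each value is the median of duplicate plates.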

[2] = compound: CC(=O)c1c(C)c2cnc(Nc3ccc(N4CCNCC4)cn3)nc2n(C2CCCC2)c1=O [Palbociclib] + N=C(N)NC(=N)NCCc1ccccc1 [Phenformin] (partner 250 µM)
How it was run: as §1

[3] = compound: CC(=O)c1c(C)c2cnc(Nc3ccc(N4CCNCC4)cn3)nc2n(C2CCCC2)c1=O [Palbociclib] + NC(=O)Nc1cc(-c2cccc(F)c2)sc1C(=O)N[C@H]1CCCNC1 [AZD7762] (partner 0.2 µM)
How it was run: as §1

[4] = compound: CC(=O)c1c(C)c2cnc(Nc3ccc(N4CCNCC4)cn3)nc2n(C2CCCC2)c1=O [Palbociclib] + Nc1ncn([C@H]2C[C@H](O)[C@@H](CO)O2)c(=O)n1 [Decitabine] (partner 2 µM)
How it was run: as §1

Cell Line	relative viability ([1]; first compound 0.01 µM)	relative viability ([1]; first compound 0.03162 µM)	relative viability ([1]; first compound 0.1 µM)	relative viability ([1]; first compound 0.3162 µM)	relative viability ([1]; first compound 1 µM)	relative viability ([2]; first compound 0.01 µM)	relative viability ([2]; first compound 0.03162 µM)	relative viability ([2]; first compound 0.1 µM)	relative viability ([2]; first compound 0.3162 µM)	relative viability ([2]; first compound 1 µM)	relative viability ([3]; first compound 0.01 µM)	relative viability ([3]; first compound 0.03162 µM)	relative viability ([3]; first compound 0.1 µM)	relative viability ([3]; first compound 0.3162 µM)	relative viability ([3]; first compound 1 µM)	relative viability ([4]; first compound 0.01 µM)	relative viability ([4]; first compound 0.03162 µM)	relative viability ([4]; first compound 0.1 µM)	relative viability ([4]; first compound 0.3162 µM)	relative viability ([4]; first compound 1 µM)
NCI-H3122	0.205	0.184	0.192	0.186	0.188	0.353	0.323	0.279	0.282	0.167	0.927	0.82	0.897	0.715	0.347	0.394	0.423	0.347	0.33	0.277
HCC-78	0.894	0.88	0.935	0.942	0.943	0.727	0.624	0.554	0.44	0.318	0.731	0.623	0.67	0.525	0.685	0.651	0.629	0.773	0.694	0.429
PC-3 [JPC-3]	1.14	1.06	0.952	0.878	0.428	0.514	0.464	0.459	0.445	0.378	0.794	0.814	0.619	0.592	0.41	0.804	0.713	0.76	0.782	0.607
HCC-15	0.217	–	0.246	0.247	0.227	0.463	–	0.405	0.421	0.323	1.27	–	1.03	1.13	0.866	0.662	–	0.535	0.523	0.498
NCI-H1755	0.429	0.394	0.385	0.467	0.397	0.626	0.433	0.495	0.53	0.405	0.476	0.402	0.436	0.451	0.421	0.742	0.744	0.614	0.7	0.635
NCI-H838	0.354	0.234	0.242	0.29	0.18	0.628	0.562	0.402	0.467	0.202	0.85	0.891	0.815	0.862	0.693	0.455	0.461	0.48	0.434	0.353
RERF-LC-KJ	0.437	0.45	0.432	0.486	0.469	0.419	0.414	0.418	0.459	0.485	0.966	0.661	0.932	0.948	0.996	0.879	0.732	0.733	0.748	0.767
NCI-H1666	0.802	0.822	0.798	0.772	0.638	0.57	0.462	0.518	0.411	0.427	0.881	0.58	0.842	0.74	0.684	0.725	0.67	0.721	0.682	0.565
NCI-H358	0.167	0.163	0.166	0.186	0.135	0.308	0.278	0.197	0.238	0.106	0.535	0.417	0.347	0.29	0.213	0.209	0.203	0.206	0.186	0.143
NCI-H1651	0.572	0.563	0.562	0.511	0.394	0.342	0.332	0.308	0.337	0.256	0.484	0.394	0.474	0.464	0.425	0.636	0.535	0.636	0.555	0.451
NCI-H441	0.276	0.266	0.258	0.236	0.257	0.896	0.627	0.623	0.57	0.35	1.04	0.844	0.896	0.743	0.598	0.22	0.244	0.241	0.241	0.236
H3255	0.602	0.59	0.576	0.488	0.397	0.38	0.361	0.319	0.368	0.287	1.07	0.8	0.831	0.798	0.506	0.733	0.514	0.522	0.525	0.384
HARA	0.253	0.265	0.274	0.262	0.212	0.509	–	0.309	0.258	0.203	0.379	0.137	0.244	0.364	0.242	0.699	0.474	0.418	0.319	0.449
NCI-H647	0.167	0.171	0.2	0.179	0.188	0.639	0.382	0.379	0.464	0.257	0.645	0.3	0.368	0.326	0.197	0.408	0.315	0.356	0.392	0.337
LOU-NH91	0.384	0.396	0.462	0.492	0.439	0.832	0.563	0.503	0.504	0.472	0.753	0.679	0.62	0.572	0.528	0.817	0.732	0.693	0.631	0.61
A-427	0.96	0.879	0.779	0.633	0.497	0.392	0.2	0.282	0.269	0.212	0.778	0.653	0.472	0.469	0.43	0.6	0.581	0.489	0.539	0.519
